Patent US20160209428A1, “DIAGNOSTIC AND PREDICTIVE METABOLITE PATTERNS FOR DISORDERS AFFECTING THE BRAIN AND NERVOUS SYSTEM” (THE REGENTS OF THE UNIVERSITY OF CALIFORNIA, priority 2013, published 2016)

Legend:
[1] = tested on: Fragile X (Fmr1) knockout mouse; test: T-maze spontaneous alternation (novelty preference), Fragile X model; format: in vivo; conditions: Fmr1 KO mice, weekly suramin 20 mg/kg ip
Text: A preference for novelty was estimated as spontaneous alternation behavior in the T-maze.

[2] = tested on: cerebral synaptosomal protein; test: Western blot analysis of cerebral synaptosomal proteins, Fragile X model; format: in vivo, mouse; conditions: Fmr1 KO mice
Text: Twenty μg of cerebral synaptosomal protein was loaded in SDS-polyacrylamide gels (Bis-Tris Gels) and transferred to PVDF membranes. The blots were first stained with Ponceau S, scanned, and the transfer efficiency was quantified by densitometry before blocking with 3% skim milk, and probing with primary and secondary antibodies for signal development by enhanced chemiluminescence (ECL).

[3] = Suramin quantitation in plasma and brain tissues by LC-MS/MS; format: in vivo, mouse
Method: Offspring of timed matings were weaned at 3-4 weeks of age into cages of two to four animals. No mice were housed in isolation. Only males were evaluated in these studies. Littermates were identified by ear tags and distributed into different cages in order to minimize litter and dam effects. […] Beginning 2 days later, behaviors were evaluated.
Tissue samples (brainstem, cerebrum and cerebellum) were ground into powder under liquid nitrogen in a pre-cooled mortar. Powdered tissue (15-50 mg) was weighed and mixed with the internal standard trypan blue to a final concentration of 5 μM (pmol mg^−1) and incubated at room temperature for 10 min to permit metabolite interaction with binding proteins. Nine volumes of methanol:acetonitrile:H2O (43:43:16) pre-chilled to −20° C. was added to produce a final solvent ratio of 40:40:20, and the samples were deproteinated and macromolecules removed by precipitation on crushed ice for 30 min. The mixture was centrifuged at 16 000 g for 10 min at 4° C. and the supernatant was transferred to a new tube and kept at −80° C. for further LC-MS/MS (liquid chromatography-tandem mass spectrometry) analysis. For plasma, 90 μl was used, to which 10 μl of 50 μM stock of trypan blue was added to achieve an internal standard concentration of 5 μM. This was incubated at room temperature for 10 min to permit metabolite interaction with binding proteins, then extracted with 4 volumes (400 μl) of pre-chilled methanol:acetonitrile (50:50) to produce a final concentration of 40:40:20 (methanol:acetonitrile:H2O) and precipitated on ice for 10 min. Other steps were the same as for solid tissue extraction.
Ten microliters of extract were injected onto a Kinetix pentafluorophenyl column (150×2.1 mm, 2.6 μm; Phenomenex, Torrance, Calif., USA) held at 30° C. for chromatographic separation. The mobile phase A was water with 20 mM ammonium acetate (NH4OAC; pH 7) and mobile phase B was methanol with 20 mM NH4OAC (pH 7). […] The flow rate was 300 μl min^−1. All the samples were kept at 4° C. during analysis. […] The electrospray ionization source parameters were set as follows: source temperature 500° C.; curtain gas 30; ion source gas 1, 35; ion source gas 2 35; spray voltage −4500V. Analyst 1.6.1 was used for data acquisition and analysis. N=4-6 per tissue. Results are reported as means±s.e.m. in absolute μM (pmol μl^−1) concentration for plasma, and pmol mg^−1 wet weight for tissues.
After completing the behavioral studies described above, mass spectrometry was used to measure drug levels in plasma, cerebrum, cerebellum and brainstem following a 5-week period of drug washout.

[4] = tested on: Fragile X (Fmr1) knockout mouse; test: Marble burying, Fragile X model; format: in vivo; conditions: KO-Sal v KO-Sur
Method: Marble burying behavior was measured over 30 minutes by a modification of methods used by Thomas, et al. (Thomas et al., 2009). Marble burying was used as a measure of normal rodent digging behavior. Marble burying has sometimes been considered a measure of anxiety, however, comprehensive genetic and behavioral studies have shown that marble burying is a normal mouse behavior that is genetically determined (Thomas et al., 2009). Marble burying was diminished 38% in Fragile X knockout mice.

[5] = cerebral synaptosomes, suramin vs saline
[6] = cerebral synaptosomes, listed as suramin
[7] = 2 days after 20 mg kg^−1 i.p., control (Sal-Sur) or MIA (PIC-Sur) animals

## Cc1ccc(C(=O)Nc2ccc(S(=O)(=O)O)c3cc(S(=O)(=O)O)cc(S(=O)(=O)O)c23)cc1NC(=O)c1cccc(NC(=O)Nc2cccc(C(=O)Nc3cc(C(=O)Nc4ccc(S(=O)(=O)O)c5cc(S(=O)(=O)O)cc(S(=O)(=O)O)c45)ccc3C)c2)c1 [Suramin, suramin]
[1]
  deficient novelty preference (spontaneous alternation in T-maze): normalized
[2]; suramin vs saline
  proteins interrogated in cerebral synaptosomes that were changed: 17 of 54
[2]; cerebral synaptosomes
  Response to Suramin KO-Sur/KO-Sal: 7-dehydrocholesterol reductase/7DHCR: Up
  Response to Suramin KO-Sur/KO-Sal: APC: Down
  Response to Suramin KO-Sur/KO-Sal: Acetyl-CoA acetyltransferase 2/ACAT2: None
  Response to Suramin KO-Sur/KO-Sal: Akt: decreased and Down
  Response to Suramin KO-Sur/KO-Sal: Amyloid β (Aβ) precursor protein/APP: Down
  Response to Suramin KO-Sur/KO-Sal: C1qA: Down
  Response to Suramin KO-Sur/KO-Sal: CB1: Down
  Response to Suramin KO-Sur/KO-Sal: CB2: unchanged and None
  Response to Suramin KO-Sur/KO-Sal: CPY27A1: None
  Response to Suramin KO-Sur/KO-Sal: Dopamine Receptor D4/D4R: None
  Response to Suramin KO-Sur/KO-Sal: ETFQO/ETFDH: None
  Response to Suramin KO-Sur/KO-Sal: Fragile X mental retardation protein/FMRP: None
  Response to Suramin KO-Sur/KO-Sal: GABA A Receptor beta 3/GABA-β3: None
  Response to Suramin KO-Sur/KO-Sal: GluR1: Down
  Response to Suramin KO-Sur/KO-Sal: HMGCoA Reductase/HMOCoAR: None
  Response to Suramin KO-Sur/KO-Sal: IP3R I: Up
  Response to Suramin KO-Sur/KO-Sal: Indoleamine 2,3-dioxygenase 1/IDO-1: None
  Response to Suramin KO-Sur/KO-Sal: Metabotropic glutamate receptor 5/mGluR5: no effect and None
  Response to Suramin KO-Sur/KO-Sal: Methionine Sulfoxide Reductase A/MSRA: None
  Response to Suramin KO-Sur/KO-Sal: Nicotinic Acetylcholine Receptor alpha 7/nAchR7: None
  Response to Suramin KO-Sur/KO-Sal: Nitro Tyrosine: None
  Response to Suramin KO-Sur/KO-Sal: P2X1: None
  Response to Suramin KO-Sur/KO-Sal: P2X2: None
  Response to Suramin KO-Sur/KO-Sal: P2X3R: Down
  Response to Suramin KO-Sur/KO-Sal: P2X4: None
  Response to Suramin KO-Sur/KO-Sal: P2X5: None
  Response to Suramin KO-Sur/KO-Sal: P2X6: None
  Response to Suramin KO-Sur/KO-Sal: P2X7: None
  Response to Suramin KO-Sur/KO-Sal: P2Y1R: Up
  Response to Suramin KO-Sur/KO-Sal: P2Y2: None
  Response to Suramin KO-Sur/KO-Sal: P2Y4: None
  Response to Suramin KO-Sur/KO-Sal: PGC1a: None
  Response to Suramin KO-Sur/KO-Sal: PI3K: decreased and Down
  Response to Suramin KO-Sur/KO-Sal: PKC: None
  Response to Suramin KO-Sur/KO-Sal: PPAR beta/delta: Up
  Response to Suramin KO-Sur/KO-Sal: PPARa: no effect and None
  Response to Suramin KO-Sur/KO-Sal: Postsynaptic Density protein 95/PSD95: None
  Response to Suramin KO-Sur/KO-Sal: Steroidogenic acute regulatory protein/StAR: Up
  Response to Suramin KO-Sur/KO-Sal: TAR DNA-binding protein 43/TDP43: Down
  Response to Suramin KO-Sur/KO-Sal: TGFβ Receptor I: None
  Response to Suramin KO-Sur/KO-Sal: mTOR: not observed and None
  Response to Suramin KO-Sur/KO-Sal: nAchR beta2: None
  Response to Suramin KO-Sur/KO-Sal: p-eIF2α(Ser51): None
  Response to Suramin KO-Sur/KO-Sal: p-mTOR(ser2448): not observed and None
  Response to Suramin KO-Sur/KO-Sal: pAkt(Ser473): None
  Response to Suramin KO-Sur/KO-Sal: pAkt(Thr308): None
  Response to Suramin KO-Sur/KO-Sal: pCAMKII(Thr286): None
  Response to Suramin KO-Sur/KO-Sal: pERK1/2(Thr202/Tyr204): None
  Response to Suramin KO-Sur/KO-Sal: pGSK3β (Ser9): Up
  Response to Suramin KO-Sur/KO-Sal: pPERK(Thr980): None
  Response to Suramin KO-Sur/KO-Sal: pPKC(Ser660): None
  Response to Suramin KO-Sur/KO-Sal: pS6K(Thr389): Up
  Response to Suramin KO-Sur/KO-Sal: pSTAT3(ser727): None
[2]; [5]
  decrease of CB1 receptor expression: 16%
  decrease of P2X3 receptor expression: 18%
  decrease of ionotropic GluR1 expression: 15%
  decrease of synaptosomal APP levels: 23%
  decrease of synaptosomal C1qA: 24%
  decrease of synaptosomal TDP43: 27%
  decrease of total APC expression: 29%
  increase in IP3R1 expression: 101%
  increase of 7-dehydrocholesterol reductase (7DHCR): 24%
  increase of P2Y1 receptor expression: 31%
  increase of inhibitory phosphorylation of S6 kinase (S6K): 47%
  increase of inhibitory phosphorylation of glycogen synthase kinase 3β (GSK3β): 75%
  increase of steroidogenic acute regulatory (StAR) protein: 165%
[2]; [6]
  Response to Suramin KO-Sur/KO-Sal: Nicotinic Acetylcholine Receptor alpha 7/nAchR7: No effect
  Response to Suramin KO-Sur/KO-Sal: P2X7: No effect
  Response to Suramin KO-Sur/KO-Sal: P2Y2: No effect
  Response to Suramin KO-Sur/KO-Sal: pCAMKII(Thr286): No effect
  Response to Suramin KO-Sur/KO-Sal: pERK1/2(Thr202/Tyr204): No effect
[2]; purified brain synaptosomes, suramin vs saline
  increase of PPARβ expression: 34%
[3]; 2 days after 20 mg kg^−1 i.p.
  brainstem suramin: 5.15 pmol/mg
[3]; [7]
  suramin in cerebellum: < 0.10 pmol mg^−1 wet weight
  suramin in cerebrum: < 0.10 pmol mg^−1 wet weight
[3]; after 5 weeks of drug washout
  suramin in any tissue (plasma, cerebrum, cerebellum, brainstem): No suramin was detected
[3]; male, mouse, plasma, ip, 2 days after 20 mg kg^−1 i.p.
  concentration at 2 days: 7.64 µM
[4]
  diminished marble burying: improved
